Data on twelve compounds can be found in patent publication US5650430A, “Radicicol derivatives, their preparation and their anti-tumor activity” (Sankyo Company, Limited, priority 1990, dated 1997).

Structures are written as SMILES. Like-named read-outs stand apart in the source and are kept apart here.

One data set deals with mouse fibrosarcoma M5076. The data set can be described thus: anti-tumor effect in mice inoculated subcutaneously with M5076 fibrosarcoma. It counts as in vivo, mouse (female BDF1). Conditions: M5076 s.c. in mice. On the procedure: The test animals used were female mice, 8 weeks old, of the BDF1 strain, weighing 20-25 g. The mice were purchased from Charles River Japan Inc., Kanagawa, Japan. The mice were divided into experimental groups, each group containing 6 mice, and all mice within each group were treated identically. Each mouse was inoculated subcutaneouly with 1×10^6viable cells (the number of cells was measured by a dye exclusion method under microscopy) of the mouse fibrosarcoma M5076.
The test compounds (80 mg) listed in the following Table, except radicicol, were dissolved in 0.2 ml of N,N-dimethylacetamide (DMA) and to the solution was added 0.2 ml of 40° C.-warmed HCO60 (polyoxyethylene hydrogenated caster oil 60). Immediately thereafter 3.6 ml of 40° C.-warmed physiological saline was added to form a colloidal solution or a suspension. The final concentration of DMA and HCO60 was 5% v/v, each. Radicicol was dissolved in […] of DMA and the solution was dispersed slowly into 3.75 ml of 10% Emulphor(trade mark)-physiological saline stirred well with a stirring rod. The final concentration of DMA was 6.25%. The solution was administered intravenously (in the case of a suspension it was administered intraperitoneally) on the first, fifth and ninth days following inoculation of the fibrosarcoma cells. The period for which the mice survived and the % inhibition of tumor growth were determined. A control group was treated identically, except that no active compound was administered.
The anti-tumor effect is shown in the following Table as the increase in life span [ILS (%)] and the growth inhibition [GI (%)], calculated from the following equations [R. I. Geran et al., Cancer Chemother. Rept., 3 (1972)]:
Dt=median survival time (days) of mice in the treated group; and
Dc=median survival time (days) of mice in the control group.
In this experiment, Dc was 40-47 days.
TDt=average value of tumor sizes on the fourteenth day in the treated group; and
TDc=average value of tumor sizes on the fourteenth day in the control group tumor size=(tumor length+tumor width )/2.

A further data set deals with various types of tumor. The data set can be described thus: anti-tumor activity against various types of tumor in vivo. The text has this:
It is believed that the relative inactivity in vivo compared to the good activity in vitro may be a result of an instability of the compound to a component of the mammalian metabolism.

The subject of data set [1] is tumor cells of the mouse mastocytoma P-815. To be noted: cited from earlier work.
The next data set has as its system fungi (anti-fungal). Conditions: in words; cited from earlier work.
For data set [2] the following is noted: in words; cited from earlier work.
Setting [3] is: Mus musculus, 336 h, 200 mg/kg iv on days 1, 5 and 9, tumor size on day 14, read-out: growth Inhibition (%).
Where [4] appears, read: Mus musculus, 200 mg/kg iv on days 1, 5 and 9, median survival vs control (Dc 40-47 days), read-out: ILS (%) (increase in life span).

For the compound `CCCCCCCC/C=C\CCCCCCCC(=O)Oc1cc(OC(=O)CCCCCCC/C=C\CCCCCCCC)c2c(c1Cl)CC(=O)/C=C/C=C\[C@H]1O[C@@H]1C[C@@H](C)OC2=O` [72(cis), 14,16-dioleoylradicicol], the inhibition in vivo at 200 mg/kg in the data set with mouse fibrosarcoma M5076 (setting [3]) was determined as 80%. Further, the ILS at 200 mg/kg in the data set with mouse fibrosarcoma M5076 (setting [4]) worked out at 4%.
In the case of `CCCCCCCC/C=C/CCCCCCCC(=O)Oc1cc(OC(=O)CCCCCCC/C=C/CCCCCCCC)c2c(c1Cl)CC(=O)/C=C/C=C\[C@H]1O[C@@H]1C[C@@H](C)OC2=O` [72(trans), 14,16-dielaidoylradicicol], the inhibition in vivo at 200 mg/kg with mouse fibrosarcoma M5076 (setting [3]) was 86%. Moreover, in the data set on mouse fibrosarcoma M5076 (setting [4]), the ILS at 200 mg/kg was found to be 9%.
As to `CCCCCCCCCCCC(=O)Oc1cc(OC(=O)CCCCCCCCCCC)c2c(c1Cl)CC(=O)/C=C/C=C\[C@H]1O[C@@H]1C[C@@H](C)OC2=O` [Compound 17, 14,16-dilauroylradicicol], the inhibition in vivo at 200 mg/kg in the data set with mouse fibrosarcoma M5076 (setting [3]) is 89%. For the same compound, in the data set on mouse fibrosarcoma M5076 (setting [4]), the ILS at 200 mg/kg was 24%.
In the case of `CCCCCCCCCCCCC(=O)Oc1cc(OC(=O)CCCCCCCCCCCC)c2c(c1Cl)CC(=O)/C=C/C=C\[C@H]1O[C@@H]1C[C@@H](C)OC2=O` [Compound 19, 14,16-ditridecanoylradicicol], the inhibition in vivo at 200 mg/kg with mouse fibrosarcoma M5076 (setting [3]) is 89%. The ILS at 200 mg/kg in the data set with mouse fibrosarcoma M5076 (setting [4]) was found to be 9%.
Consider `CCCCCCCCCCCCCC(=O)Oc1cc(OC(=O)CCCCCCCCCCCCC)c2c(c1Cl)CC(=O)/C=C/C=C\[C@H]1O[C@@H]1C[C@@H](C)OC2=O` [Compound 21, 14,16-dimyristoylradicicol], for which the inhibition in vivo at 200 mg/kg in the data set on mouse fibrosarcoma M5076 (setting [3]) stood at 91%. Besides, in the data set with mouse fibrosarcoma M5076 (setting [4]), the ILS at 200 mg/kg was found to be 35%.
In the case of `CCCCCCCCCCCCCCC(=O)Oc1cc(OC(=O)CCCCCCCCCCCCCC)c2c(c1Cl)CC(=O)/C=C/C=C\[C@H]1O[C@@H]1C[C@@H](C)OC2=O` [Compound 23, 14,16-dipentadecanoylradicicol], the inhibition in vivo at 200 mg/kg with mouse fibrosarcoma M5076 (setting [3]) was 95%. Besides, the ILS at 200 mg/kg in the data set on mouse fibrosarcoma M5076 (setting [4]) worked out at 35%.
Regarding `CCCCCCCCCCCCCCCC(=O)Oc1cc(OC(=O)CCCCCCCCCCCCCCC)c2c(c1Cl)CC(=O)/C=C/C=C\[C@H]1O[C@@H]1C[C@@H](C)OC2=O` [Compound 25, 14,16-dipalmitoylradicicol], the inhibition in vivo at 200 mg/kg in the data set with mouse fibrosarcoma M5076 (setting [3]) came out at 100%. Moreover, in the data set with mouse fibrosarcoma M5076 (setting [4]), the ILS at 200 mg/kg was 43%.
In the same order, the values of `CCCCCCCCCCCCCCCCC(=O)Oc1cc(OC(=O)CCCCCCCCCCCCCCCC)c2c(c1Cl)CC(=O)/C=C/C=C\[C@H]1O[C@@H]1C[C@@H](C)OC2=O` [Compound 28, 14,16-diheptadecanoylradicicol] are 95% and 27%.
Regarding `CCCCCCCCCCCCCCCCCC(=O)Oc1cc(OC(=O)CCCCCCCCCCCCCCCCC)c2c(c1Cl)CC(=O)/C=C/C=C\[C@H]1O[C@@H]1C[C@@H](C)OC2=O` [Compound 31, 14,16-distearoylradicicol], the inhibition in vivo at 200 mg/kg in the data set with mouse fibrosarcoma M5076 (Mus musculus, 336 h, 200 mg/kg ip on days 1, 5 and 9, tumor size on day 14, read-out: growth Inhibition (%)) was 66%. For the same compound, the ILS at 200 mg/kg in the data set on mouse fibrosarcoma M5076 (Mus musculus, 200 mg/kg ip on days 1, 5 and 9, median survival vs control (Dc 40-47 days), read-out: ILS (%) (increase in life span)) is -4%.
As to `CCCCCC/C=C\CCCCCCCC(=O)Oc1cc(OC(=O)CCCCCCC/C=C\CCCCCC)c2c(c1Cl)CC(=O)/C=C/C=C\[C@H]1O[C@@H]1C[C@@H](C)OC2=O` [Compound 70, 14,16-dipalmitoleoylradicicol], the inhibition in vivo at 200 mg/kg in the data set on mouse fibrosarcoma M5076 (setting [3]) came to 65%. For the same compound, the ILS at 200 mg/kg in the data set on mouse fibrosarcoma M5076 (setting [4]) was found to be 31%.
Consider `CC/C=C\C/C=C\C/C=C\CCCCCCCC(=O)Oc1cc(OC(=O)CCCCCCC/C=C\C/C=C\C/C=C\CC)c2c(c1Cl)CC(=O)/C=C/C=C\[C@H]1O[C@@H]1C[C@@H](C)OC2=O` [Compound 76, 14,16-dilinolenoylradicicol], for which the “ILS (%) (increase in life span)” value with mouse fibrosarcoma M5076 (200 mg/kg iv on days 1, 5 and 9, median survival vs control (Dc 40-47 days)) was 11%. For the same compound, the “growth Inhibition (%)” value in the data set with mouse fibrosarcoma M5076 (200 mg/kg iv on days 1, 5 and 9, tumor size on day 14) came out at 74%.
For the compound `C[C@@H]1C[C@H]2O[C@@H]2/C=C\C=C\C(=O)Cc2c(Cl)c(O)cc(O)c2C(=O)O1` [radicicol], the inhibition in vivo at 150 mg/kg with mouse fibrosarcoma M5076 (Mus musculus, 336 h, 150 mg/kg iv on days 1, 5 and 9, tumor size on day 14, read-out: growth Inhibition (%)) amounted to 5%. In addition, the ILS at 150 mg/kg with mouse fibrosarcoma M5076 (Mus musculus, 150 mg/kg iv on days 1, 5 and 9, median survival vs control (Dc 40-47 days), read-out: ILS (%) (increase in life span)) was -29%. The “anti-tumor activity in vivo” value in the data set on various types of tumor is given as “little anti-tumor activity”. Also, the “inhibitory effect in vitro on the growth of tumor cells” value in data set [1] is recorded as “strong inhibitory effect”. The “antibiotic activity (nature of)” value in the data set on fungi (anti-fungal) was “strictly anti-fungal”. In addition, in data set [2], the “effect on the central nervous system” value is reported as “without having any effect on the central nervous system” and the tranquilizing activity entry is given as “relatively strong tranquilizing activity”.
